Assay results reported in patent US20220031684A1, “PROPHYLACTIC EFFICACY OF SEROTONIN 4 RECEPTOR AGONISTS AGAINST STRESS” (THE TRUSTEES OF COLUMBIA UNIVERSITY IN THE CITY OF NEW YORK, priority 2019, published 2022).

Assays:
DRN 5-HT neurons = assay: In vivo electrophysiological recordings of DRN 5-HT neurons; parameters: species or system mice; settings: RS67333 1.5 mg/kg i.p.; after vs before administration
Description: FIGS. 7A-7G. Acute 5-HT4 receptor stimulation induces fast anxiolytic-like effects on 5-HT function through a modulation of the mPFC in an anxious BALB/cJRj mouse strain. (7A) Before the administration of RS67333 (RS, 1.5 mg/kg), different tracks were performed to record 5-HT neurons for 30 min. At the end of this period, RS67333 was administered i.p. and 30 min after, two or three subsequent tracks were realized. (7B) Discharge frequency of DRN 5-HT neurons is assessed as mean firing rate. The number of neurons tested is indicated in each histogram (n=25 and 26 before and after RS injection for a total of n=5 mice). Data are mean±[…] of DRN 5-HT neurons determined before the administration of RS67333. (7C) Typical recordings of DRN 5-HT neurons in the different experimental conditions. Histograms in the upper panels represent the number of action potentials (APs) per 10 seconds (scale bar). […] (7E) Cortical 5-HT depletion by p-CPA pre-treatment is measured as mean 5-HT levels (n=6-8 mice per group). (7F and 7G) Anxiety is measured in the elevated plus maze (EPM) as mean time or percent time spent in the open arms (F and inset), as mean ratio ambulatory distance in open arms/total distance (7G) and as mean total ambulatory distance (inset) (n=8-11 mice per group). […]

C57BL/6NTac mice = assay: Adverse side effects of chronic administration; format: in vivo
Description: This chronic CORT elevation dysregulates the hypothalamic-pituitary-adrenal axis (HPA) in a manner similar to that observed in clinical depression. The dose and duration of CORT treatment was selected based on previous studies. CORT (35 μg/ml, equivalent to about 5 mg/kg/day) dissolved in 0.45% hydroxypropyl-o-cyclodextrin (0-CD) or vehicle (VEH) (0.45% j-CD) was available ad libitum in the drinking water in opaque bottles to protect it from light. VEH- and CORT-treated water was changed every 3 days to prevent possible degradation. Contextual Fear Conditioning (CFC): A 3-shock CFC procedure was administered as previously published. Briefly, mice were placed into context A and administered 3 2-s shocks (0.75 mA) at 180 s, 240 s or 300 s following placement into context A. Mice were removed from the context 15 s following the termination of shock (at 317 s). For context retrieval, mice were placed back into context A for 300 s. Electrophysiology: Electrophysiology was conducted as previously described. Statistical Analysis: Results from data analyses are expressed as means±SEM. Alpha was set to 0.05 for all analyses. Data were analyzed using GraphPad Prism v7.0 or v8.0. For all experiments, unless otherwise noted, one- or two-way ANOVAs with repeated-measures were applied to the data as appropriate. […] Videos were scored using ANY-maze behavior tracking software (Stoelting, Wood Dale, Ill.). […]

SMILES: CCCCN1CCC(CCC(=O)c2cc(Cl)c(N)cc2OC)CC1.Cl [RS-67,333, 1-(4-amino-5-chloro-2-methoxyphenyl)-3-[1(n-butyl)-4-piperidinyl]-1-propanone HCl]
- increase of the discharge frequency of DRN 5-HT neurons (DRN 5-HT neurons): 63%
- adverse side effects (C57BL/6NTac mice): did not result in adverse side effects
